# PubChem BioAssay (NCI)
#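 Five concentrations, 48 hours, 96-well plates. Here, GI50 denotes the concentration required for 50% inhibition of growth. Definition used: TGI = concentration required for complete inhibition of growth.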
# What was measured:
# Test in all cases: NCI-60 cell line screen, 48 h
# DU-145 prostate = test system: DU-145 prostate
# MOLT-4 leukemia = test system: MOLT-4 leukemia
# CCRF-CEM leukemia = test system: CCRF-CEM leukemia
# SK-MEL-2 melanoma = test system: SK-MEL-2 melanoma
# HCT-15 colon = test system: HCT-15 colon
# NCI-H226 lung = test system: NCI-H226 lung
# 786-0 renal = test system: 786-0 renal
# SNB-19 CNS = test system: SNB-19 CNS
# OVCAR-3 ovarian = test system: OVCAR-3 ovarian
# A549 NSCLC = test system: A549 NSCLC
# ACHN renal = test system: ACHN renal
# IGROV1 ovarian = test system: IGROV1 ovarian
# OVCAR-4 ovarian = test system: OVCAR-4 ovarian
# BT-549 breast = test system: BT-549 breast
# RPMI-8226 leukemia = test system: RPMI-8226 leukemia
# K-562 leukemia = test system: K-562 leukemia
# EKVX NSCLC = test system: EKVX NSCLC
# MCF7 breast = test system: MCF7 breast
# HCT-116 colon = test system: HCT-116 colon
# KM12 colon = test system: KM12 colon
# LOX IMVI melanoma = test system: LOX IMVI melanoma
# HOP-62 NSCLC = test system: HOP-62 NSCLC
# SN12C renal = test system: SN12C renal
# SF-268 CNS = test system: SF-268 CNS
# SF-539 CNS = test system: SF-539 CNS
# HS 578T breast = test system: HS 578T breast
# T-47D breast = test system: T-47D breast
# A498 renal = test system: A498 renal
# NCI-H460 lung = test system: NCI-H460 lung
structure (smiles),measurement,setting,value
O=C(NCCCNC(=O)OCc1ccc2c(Br)cc(Br)c(O)c2n1)OCc1ccc2c(Br)cc(Br)c(O)c2n1,GI50,DU-145 prostate,> 100 µM
same,TGI,DU-145 prostate,> 100 µM
same,GI50,MOLT-4 leukemia,> 100 µM
same,TGI,MOLT-4 leukemia,> 100 µM
same,GI50,CCRF-CEM leukemia,> 100 µM
same,TGI,CCRF-CEM leukemia,> 100 µM
same,GI50,SK-MEL-2 melanoma,> 100 µM
same,TGI,SK-MEL-2 melanoma,> 100 µM
same,GI50,HCT-15 colon,> 100 µM
same,TGI,HCT-15 colon,> 100 µM
same,GI50,NCI-H226 lung,> 100 µM
same,TGI,NCI-H226 lung,> 100 µM
same,GI50,786-0 renal,> 100 µM
same,TGI,786-0 renal,> 100 µM
same,GI50,SNB-19 CNS,> 100 µM
same,TGI,SNB-19 CNS,> 100 µM
same,GI50,OVCAR-3 ovarian,> 100 µM
same,TGI,OVCAR-3 ovarian,> 100 µM
same,GI50,A549 NSCLC,> 100 µM
same,TGI,A549 NSCLC,> 100 µM
same,GI50,ACHN renal,> 100 µM
same,TGI,ACHN renal,> 100 µM
same,GI50,IGROV1 ovarian,> 100 µM
same,TGI,IGROV1 ovarian,> 100 µM
same,GI50,OVCAR-4 ovarian,> 100 µM
same,TGI,OVCAR-4 ovarian,> 100 µM
same,GI50,BT-549 breast,> 100 µM
same,TGI,BT-549 breast,> 100 µM
same,GI50,RPMI-8226 leukemia,> 100 µM
same,TGI,RPMI-8226 leukemia,> 100 µM
same,GI50,K-562 leukemia,> 100 µM
same,TGI,K-562 leukemia,> 100 µM
same,GI50,EKVX NSCLC,> 100 µM
same,TGI,EKVX NSCLC,> 100 µM
same,GI50,MCF7 breast,> 100 µM
same,TGI,MCF7 breast,> 100 µM
same,GI50,HCT-116 colon,> 100 µM
same,TGI,HCT-116 colon,> 100 µM
same,GI50,KM12 colon,> 100 µM
same,TGI,KM12 colon,> 100 µM
same,GI50,LOX IMVI melanoma,> 100 µM
same,TGI,LOX IMVI melanoma,> 100 µM
same,GI50,HOP-62 NSCLC,> 100 µM
same,TGI,HOP-62 NSCLC,> 100 µM
same,GI50,SN12C renal,> 100 µM
same,TGI,SN12C renal,> 100 µM
same,GI50,SF-268 CNS,> 100 µM
same,TGI,SF-268 CNS,> 100 µM
same,GI50,SF-539 CNS,> 100 µM
same,TGI,SF-539 CNS,> 100 µM
same,GI50,HS 578T breast,> 100 µM
same,TGI,HS 578T breast,> 100 µM
same,GI50,T-47D breast,> 100 µM
same,TGI,T-47D breast,> 100 µM
same,GI50,A498 renal,> 100 µM
same,TGI,A498 renal,> 100 µM
same,GI50,NCI-H460 lung,> 100 µM
same,TGI,NCI-H460 lung,> 100 µM
